The subject of data set [1] is Beet Armyworm (Spodoptera exigua) ("BAW"), second instar larvae. Nature of the data set: Bioassay on beet armyworm (BAW), 128-well diet tray assay. Format: in vivo. To be noted: for pest or weed control at 50 µg/cm2: Spodoptera exigua. A digest of the protocol: (§1)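 After sealing with a clear self-adhesive lid, the trays are incubated at 25° C. with 14 h light and 10 h dark for 5 to 7 days; mortality in each well is recorded as a percentage and averaged across the eight wells.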

The test system of data set [2] is Cabbage Looper (Trichoplusia ni) ("CL"), second instar larvae. Put plainly: Bioassay on cabbage looper (CL), 128-well diet tray assay. Format: in vivo. Put shortly:
as §1

The mark [3] stands for this setting: Trichoplusia ni, read-out: CL rating.
Setting [4] is: read-out: BAW (Biological Results, rating).
Where [5] appears, read: Trichoplusia ni, read-out: CL (Biological Results, rating).

Where two headings read alike, the source gives them in different places.

Broadly, the mortality is the percentage killed.

Consider `Cc1ccc(C(C)C)c(N2C(=O)CS/C2=N\C(=O)Nc2ccc(-n3cnc(-c4ccc(C(F)(F)F)cc4)n3)cc2F)c1` [Compound J694, (Z)-1-(2-Fluoro-4-(3-(4-(trifluoromethyl)phenyl)-1H-1,2,4-triazol-1-yl)phenyl)-3-(3-(2-isopropyl-5-methylphenyl)-4-oxothiazolidin-2-ylidene)urea], for which the pest or weed control at 50 µg/cm2 in data set [1] (read-out: BAW rating) and in data set [2] (setting [3]) was 50 to 100% throughout.

Regarding `Cc1ccc(COCC(F)(F)F)c(N2C(=O)CS/C2=N\C(=O)Nc2ccc(-c3ncn(-c4ccc(OCC#N)cc4)n3)cc2F)c1` [Compound J343, (Z)-1-(4-(1-(4-(Cyanomethoxy)phenyl)-1H-1,2,4-triazol-3-yl)-2-fluorophenyl)-3-(3-(5-methyl-2-((2,2,2-trifluoroethoxy)methyl)phenyl)-4-oxothiazolidin-2-ylidene)urea], the pest or weed control at 50 µg/cm2 in data set [1] (setting [4]) and in data set [2] (setting [5]) was 50 to 100% in each case.

`Cc1ccc(COCc2ccccc2)c(N2C(=O)CS/C2=N\C(=O)Nc2ccc(-c3ncn(-c4ccc(OC(F)(F)F)cc4)n3)cc2F)c1` [Compound J571, (Z)-1-(3-(2-((Benzyloxy)methyl)-5-methylphenyl)-4-oxothiazolidin-2-ylidene)-3-(2-fluoro-4-(1-(4-(trifluoromethoxy)phenyl)-1H-1,2,4-triazol-3-yl)phenyl)urea]: the pest or weed control at 50 µg/cm2 in data set [1] (read-out: BAW rating) and in data set [2] (setting [3]) was 50 to 100% throughout.

As to `Cc1ccc(COCC(F)(F)F)c(N2C(=O)CS/C2=N\C(=O)Nc2ccc(-n3cnc(-c4ccc(OC(F)(F)F)cc4)c3)cc2Cl)c1` [Compound J786, (Z)-1-(2-Chloro-4-(4-(4-(trifluoromethoxy)phenyl)-1H-imidazol-1-yl)phenyl)-3-(3-(5-methyl-2-((2,2,2-trifluoroethoxy)methyl)phenyl)-4-oxothiazolidin-2-ylidene)urea], the “BAW rating (% control or mortality class)” value in data set [1] (Table ABC, species BAW, 128-well diet tray assay, second instar larvae) is recorded as “A (50-100)”. In addition, the mortality at 50 µg/cm2 in data set [2] (Trichoplusia ni, Table ABC, species CL, 128-well diet tray assay, second instar larvae, read-out: CL rating (% control or mortality class)) was in the range of 50 to 100%.

In the case of `Cc1ccc(C(C)C)c(N2C(=O)CS/C2=N\C(=O)Nc2ccc(-c3nnc(-c4ccc(OC(F)(F)F)cc4)o3)cc2F)c1` [Compound J607, (Z)-1-(2-fluoro-4-(5-(4-(trifluoromethoxy)phenyl)-1,3,4-oxadiazol-2-yl)phenyl)-3-(3-(2-isopropyl-5-methylphenyl)-4-oxothiazolidin-2-ylidene)urea], the pest or weed control at 50 µg/cm2 in data set [1] (read-out: BAW rating) and in data set [2] (setting [3]) was 50 to 100% throughout.

In the case of `Cc1ccc(COCC(F)(F)F)c(N2C(=O)CS/C2=N\C(=O)Nc2ccc(-c3ncn(-c4cc(C(F)(F)F)cc(C(F)(F)F)c4)n3)cc2F)c1` [Compound J760, (Z)-1-(4-(1-(3,5-Bis(trifluoromethyl)phenyl)-1H-1,2,4-triazol-3-yl)-2-fluorophenyl)-3-(3-(5-methyl-2-((2,2,2-trifluoroethoxy)methyl)phenyl)-4-oxothiazolidin-2-ylidene)urea], the pest or weed control at 50 µg/cm2 in data set [1] (read-out: BAW rating) was 50 to 100%; in data set [2] (setting [3]) it was 0 to 50%.

With `Cc1ccc(C(C)C)c(N2C(=O)CS/C2=N\C(=O)Nc2ccc(-c3ncn(-c4cccc(C(F)(F)F)c4)n3)cc2F)c1` [Compound J140, (Z)-1-(2-Fluoro-4-(1-(3-(trifluoromethyl)phenyl)-1H-1,2,4-triazol-3-yl)phenyl)-3-(3-(2-isopropyl-5-methylphenyl)-4-oxothiazolidin-2-ylidene)urea], the pest or weed control at 50 µg/cm2 in data set [1] (setting [4]) and in data set [2] (setting [5]) was 50 to 100% in each case.

In the case of `COC(C)c1ccc(C)cc1N1C(=O)CS/C1=N\C(=O)Nc1ccc(-c2ncn(-c3ccc(OC(F)(F)F)cn3)n2)cc1Cl` (stereo not drawn) [Compound J250, (Z)-1-(2-Chloro-4-(1-(5-(trifluoromethoxy)pyridin-2-yl)-1H-1,2,4-triazol-3-yl)phenyl)-3-(3-(2-(1-methoxyethyl)-5-methylphenyl)-4-oxothiazolidin-2-ylidene)urea], the pest or weed control at 50 µg/cm2 in data set [1] (setting [4]) and in data set [2] (setting [5]) was 50 to 100% each time.

With `Cc1ccc(COCC(F)(F)F)c(N2C(=O)CS/C2=N\C(=O)Nc2ccc(-c3ncn(-c4ccc(OC(F)(F)F)cc4)n3)cc2C(F)(F)F)c1` [Compound J165, (Z)-1-(3-(5-Methyl-2-((2,2,2-trifluoroethoxy)methyl)phenyl)-4-oxothiazolidin-2-ylidene)-3-(4-(1-(4-(trifluoromethoxy)phenyl)-1H-1,2,4-triazol-3-yl)-2-(trifluoromethyl)phenyl)urea], the pest or weed control at 50 µg/cm2 in data set [1] (setting [4]) and in data set [2] (setting [5]) was 50 to 100% throughout.

As for `COCc1ccc(N(C)C)cc1N1C(=O)CS/C1=N\C(=O)Nc1ccc(-c2nnc(-c3ccc(OC(F)(F)F)cc3)o2)cc1F` [Compound J612, (Z)-1-(3-(5-(Dimethylamino)-2-(methoxymethyl)phenyl)-4-oxothiazolidin-2-ylidene)-3-(2-fluoro-4-(5-(4-(trifluoromethoxy)phenyl)-1,3,4-oxadiazol-2-yl)phenyl)urea], the pest or weed control at 50 µg/cm2 in data set [1] (read-out: BAW rating) and in data set [2] (setting [3]) was 50 to 100% throughout.

In the case of `CCOCc1ccc(C)cc1N1C(=O)CS/C1=N\C(=O)Nc1ccc(-c2ncn(-c3ccc(S(F)(F)(F)(F)F)cc3)n2)cc1C#N` [Compound J582], the pest or weed control at 50 µg/cm2 in data set [1] (read-out: BAW rating) and in data set [2] (setting [3]) was 50 to 100% throughout.

As to `CC(=O)c1cc(-c2ncn(-c3ccc(OC(F)(F)F)cc3)n2)ccc1NC(=O)/N=C1\SCC(=O)N1c1cc(C)ccc1OCCC(F)(F)F` [Compound J399, (Z)-1-(2-Acetyl-4-(1-(4-(trifluoromethoxy)phenyl)-1H-1,2,4-triazol-3-yl)phenyl)-3-(3-(5-methyl-2-(3,3,3-trifluoropropoxy)phenyl)-4-oxothiazolidin-2-ylidene)urea], the pest or weed control at 50 µg/cm2 in data set [1] (read-out: BAW rating) and in data set [2] (setting [3]) was 50 to 100% each time.

On to `Cc1ccc(COCC(F)(F)F)c(N2C(=O)CS/C2=N\C(=O)Nc2ccc(-c3cn(-c4ccc(S(F)(F)(F)(F)F)cc4)cn3)cc2C)c1` [Compound J616, (Z)-1-(3-(5-Methyl-2-((2,2,2-trifluoroethoxy)methyl)phenyl)-4-oxothiazolidin-2-ylidene)-3-(2-methyl-4-(1-(4-(pentafluoro-λ^6-sulfaneyl)phenyl)-1H-imidazol-4-yl)phenyl)urea], for which the pest or weed control at 50 µg/cm2 in data set [1] (read-out: BAW rating) and in data set [2] (setting [3]) was 50 to 100% in each case.

For the compound `COC(c1ccc(C)cc1N1C(=O)CS/C1=N\C(=O)Nc1ccc(-n2cnc(-c3ccc(OC(F)(F)F)cc3)n2)cc1)C(F)(F)F` (stereo not drawn) [Compound J405, (Z)-1-(3-(5-Methyl-2-(2,2,2-trifluoro-1-methoxyethyl)phenyl)-4-oxothiazolidin-2-ylidene)-3-(4-(3-(4-(trifluoromethoxy)phenyl)-1H-1,2,4-triazol-1-yl)phenyl)urea], the pest or weed control at 50 µg/cm2 in data set [1] (read-out: BAW rating) and in data set [2] (setting [3]) was 50 to 100% throughout.

`O=C(/N=C1\SCC(=O)N1c1cc(Cl)ccc1C(F)(F)F)NCC(F)c1ccc(-c2ncn(-c3ccc(OC(F)(F)F)cc3)n2)cc1` (stereo not drawn) [Compound H6]: the pest or weed control at 50 µg/cm2 in data set [1] (setting [4]) and in data set [2] (setting [5]) was 50 to 100% each time.

As to `Cc1ccc(OCCC(F)(F)F)c(N2C(=O)CS/C2=N\C(=O)Nc2ccc(-c3ncn(-c4ccc(S(F)(F)(F)(F)F)cc4)n3)cc2F)c1` [Compound J447], the pest or weed control at 50 µg/cm2 in data set [1] (read-out: BAW rating) and in data set [2] (setting [3]) was 50 to 100% throughout.

In the case of `COC(C)c1ccc(C)cc1N1C(=O)CS/C1=N\C(=O)Nc1ccc(-c2ccn(-c3ccc(C(F)(F)F)cn3)n2)cc1C` (stereo not drawn) [Compound J311, (Z)-1-(3-(2-(1-Methoxyethyl)-5-methylphenyl)-4-oxothiazolidin-2-ylidene)-3-(2-methyl-4-(1-(5-(trifluoromethyl)pyridin-2-yl)-1H-pyrazol-3-yl)phenyl)urea], the pest or weed control at 50 µg/cm2 in data set [1] (setting [4]) and in data set [2] (setting [5]) was 50 to 100% in each case.

As for `Cc1ccc(N2C(=O)CS/C2=N\C(=O)Nc2ccc(-c3ncn(-c4ccc(OC(F)(F)F)cc4)n3)cc2F)c(COCC(F)(F)F)c1` [Compound J438], the BAW rating result in data set [1] (Table ABC, species BAW, C = not tested, D = no activity noticed) is on record as “A (50-100)”. The CL rating entry in data set [2] (Table ABC, species CL, C = not tested, D = no activity noticed) is recorded as “A (50-100)”.

Regarding `COC(C)c1ccc(C)cc1N1C(=O)CS/C1=N\C(=O)Nc1ccc(-c2ncn(-c3ccc(OC(F)(F)F)cn3)n2)cc1F` (stereo not drawn) [Compound J236, (Z)-1-(2-Fluoro-4-(1-(5-(trifluoromethoxy)pyridin-2-yl)-1H-1,2,4-triazol-3-yl)phenyl)-3-(3-(2-(1-methoxyethyl)-5-methylphenyl)-4-oxothiazolidin-2-ylidene)urea], the pest or weed control at 50 µg/cm2 in data set [1] (setting [4]) and in data set [2] (setting [5]) was 50 to 100% in each case.

Regarding `Cc1cc(-n2cnc(-c3ccc(OC(F)(F)F)cc3)n2)ccc1NC(=O)/N=C1\SCC(=O)N1c1cc(N(C)C)ccc1C(C)C` [Compound J469, (Z)-1-(3-(5-(Dimethylamino)-2-isopropylphenyl)-4-oxothiazolidin-2-ylidene)-3-(2-methyl-4-(3-(4-(trifluoromethoxy)phenyl)-1H-1,2,4-triazol-1-yl)phenyl)urea], the pest or weed control at 50 µg/cm2 in data set [1] (read-out: BAW rating) and in data set [2] (setting [3]) was 50 to 100% in each case.

Take `COCc1ccc(N(C)C)cc1N1C(=O)CS/C1=N\C(=O)Nc1ccc(-c2noc(-c3ccc(OC(F)(F)F)cc3)n2)cc1F` [Compound J773, (Z)-1-(3-(5-(Dimethylamino)-2-(methoxymethyl)phenyl)-4-oxothiazolidin-2-ylidene)-3-(2-fluoro-4-(5-(4-(trifluoromethoxy)phenyl)-1,2,4-oxadiazol-3-yl)phenyl)urea]: the pest or weed control at 50 µg/cm2 in data set [1] (read-out: BAW rating) and in data set [2] (setting [3]) was 50 to 100% each time.

The values are drawn from US20230077362A1 (CORTEVA AGRISCIENCE LLC, priority 2019, published 2023).
